Among the data in patent US20210355104A1, “ADENOSINE RECEPTOR BINDING COMPOUNDS” (Nikang Therapeuticsm Inc., priority 2018, published 2021) are IC50 values, retold here.

In experiment [1] the target is T1, Adenosine A2A receptor (Homo sapiens, UniProt P29274). Nature of the experiment: cAMP assay in 293A cells stably expressing the adenosine A2A receptor (CGS21680 stimulation, HTRF). The class given is cell-based. Also noted: expressed in transfected cells; host or cells: 293A cells (Invitrogen, Cat# R705-07) infected with A2A-expressing lentivirus (custom packaged by Biosettia), puromycin selected. The conditions noted are these: 293A-A2AR cells, 0.1% BSA.
T1 sequence (P29274 whole entry): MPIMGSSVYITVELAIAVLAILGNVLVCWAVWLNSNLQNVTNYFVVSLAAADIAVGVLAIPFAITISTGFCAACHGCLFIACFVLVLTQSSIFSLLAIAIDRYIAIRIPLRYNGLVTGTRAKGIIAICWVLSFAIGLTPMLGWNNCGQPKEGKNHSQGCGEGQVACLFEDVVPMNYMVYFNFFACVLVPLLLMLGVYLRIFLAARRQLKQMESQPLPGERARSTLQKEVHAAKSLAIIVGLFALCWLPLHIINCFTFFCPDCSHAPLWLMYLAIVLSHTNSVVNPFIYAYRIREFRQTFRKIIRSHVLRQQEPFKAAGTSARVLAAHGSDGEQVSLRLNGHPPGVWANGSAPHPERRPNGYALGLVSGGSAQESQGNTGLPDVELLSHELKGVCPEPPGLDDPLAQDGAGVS

Experiment [2] addresses T1, Adenosine A2A receptor. Nature of the experiment: Adenosine A2A receptor competitive binding assay (Tag-lite HTRF). The conditions noted are these: Tag-lite adenosine A2A receptor ligand binding. As for the experimental part: Adenosine A2A Receptor Competitive Binding Assay
The Tag-lite adenosine A2A receptor ligand binding assay is a homogeneous alternative to radioligand binding assay and developed by Cisbio (Bedford, Mass.). We carried out this assay following Cisbio's instructions with minor modification. Pre-transfected, fluorescent donor-labelled cells (Cisbio Cat#: C1TT1A2A, 200 testes) was stored at −80° C. and thawed right before use. Cells were washed once with 5 ml TLB and gently resuspended in 2 ml TLB. 4 μl suspended cells was dispensed into each well of white low-volume 384-well plate (Greiner Bio-One). Serial dilutions of compounds were prepared in Tag-lite buffer (TLB, Cisbio Cat #: LABMED) to a DMSO concentration of 0.6%. After adding 4 μl of compound dilutions to each well, 4 μl60 nM Adenosine A2A receptor red antagonist fluorescent ligand (Cisbio Cat #: L0058RED) was dispensed to each well. The 384-well assay plate was centrifuged briefly and incubated at room temperature for 2 h. HTRF signals were measured using CIARIOstar plate reader (BMG Labtech).

[3] abbreviates: 1 uM CGS, values separated by / are repeat determinations, read-out: cAMP (nM) 0.1% BSA, 1 uM CGS.
Where [4] appears, read: 2 h room temperature, values separated by / are repeat determinations.
[5] abbreviates: 8 nM CGS, values separated by / are repeat determinations, read-out: cAMP (nM) 0.1% BSA, 8 nM CGS.

Several values for one entry are separate records, joined by “and”; a condition that tells them apart may be missing. Equal values may be shown once.

`Cc1cc(-c2c(OCCN(C)c3nccc(N)n3)nc(N)nc2-c2ccc(F)cc2)cc(C(F)F)n1` [Example 147, N^2-(2-((2-amino-5-(2-(difluoromethyl)-6-methylpyridin-4-yl)-6-(4-fluorophenyl)pyrimidin-4-yl)oxy)ethyl)-N^2-methylpyrimidine-2,4-diamine]: the IC50 at Adenosine A2A receptor [1] (setting [3]) is 5460 nM; on Adenosine A2A receptor [2] (setting [4]) it was 13 nM.
For `CCNC(=O)COc1nc(N)nc(-c2ccccc2)c1-c1cc(C)nc(C(F)(F)F)c1` [Example 29, 2-([2-amino-5-[2-methyl-6-(trifluoromethyl)pyridin-4-yl]-6-phenylpyrimidin-4-yl]oxy)-N-ethylacetamide], the IC50 at Adenosine A2A receptor [1] (setting [5]) is 2 nM and 2.7 nM; at Adenosine A2A receptor [2] (setting [4]) it was 7.74 nM.
`Cc1cc(-c2c(OC[C@@H](C)O)nc(N)nc2-c2ccc(F)cc2)cc(C(F)F)n1` [Example 74, (R)-1-((2-amino-5-(2-(difluoromethyl)-6-methylpyridin-4-yl)-6-(4-fluorophenyl)pyrimidin-4-yl)oxy)propan-2-ol]: the IC50 was 693 nM at Adenosine A2A receptor [1] (setting [3]); 8.4 nM and 15.7 nM at Adenosine A2A receptor [2] (setting [4]).
For `Cc1cc(-c2c(OCCc3ccc(NS(C)(=O)=O)cc3)nc(N)nc2-c2ccc(F)cc2)cc(C(F)F)n1` [Example 69, N-(4-(2-((2-amino-5-(2-(difluoromethyl)-6-methylpyridin-4-yl)-6-(4-fluorophenyl)pyrimidin-4-yl)oxy)ethyl)phenyl)methanesulfonamide], the IC50 at Adenosine A2A receptor [1] (setting [5]) turned out to be 5.8 nM; at Adenosine A2A receptor [2] (setting [4]), 38 nM.
With `COC(=O)NCCOc1nc(N)nc(-c2ccccc2)c1-c1cc(C)nc(C(F)(F)F)c1` [Example 119, methyl(2-((2-amino-5-(2-methyl-6-(trifluoromethyl)pyridin-4-yl)-6-phenylpyrimidin-4-yl)oxy)ethyl)carbamate], the IC50 at Adenosine A2A receptor [1] (setting [5]) is 5.8 nM and 5.4 nM; at Adenosine A2A receptor [2] (setting [4]), 16.8 nM.
Turning to `CCOC(=O)NCCOc1nc(N)nc(-c2ccc(F)cc2)c1-c1cc(C)nc(C(F)F)c1` [Example 54, ethyl(2-((2-amino-5-(2-(difluoromethyl)-6-methylpyridin-4-yl)-6-(4-fluorophenyl)pyrimidin-4-yl)oxy)ethyl)carbamate], the IC50 on Adenosine A2A receptor [1] (setting [5]) is 0.22 nM and 1.45 nM; on Adenosine A2A receptor [2] (setting [4]) it was 2.1 nM and 10 nM.
For the molecule `Cc1cc(-c2c(CNC(=O)N(C)C)nc(N)nc2-c2ccc(F)cc2)cc(C(F)F)n1` [Example 78, 3-((2-amino-5-(2-(difluoromethyl)-6-methylpyridin-4-yl)-6-(4-fluorophenyl)pyrimidin-4-yl)methyl)-1,1-dimethylurea], the results for the IC50 at Adenosine A2A receptor [1] (setting [5]) and at Adenosine A2A receptor [2] (setting [4]) were 51 nM and 11 nM, respectively.
Consider `Cc1cc(-c2c(OCc3nccn3CC(C)C)nc(N)nc2-c2ccc(F)cc2)cc(C(F)F)n1` [Example 176, 5-(2-(difluoromethyl)-6-methylpyridin-4-yl)-4-(4-fluorophenyl)-6-((1-isobutyl-1H-imidazol-2-yl)methoxy)pyrimidin-2-amine], for which the IC50 on Adenosine A2A receptor [1] (setting [5]) was determined as 7.9 nM; on Adenosine A2A receptor [2] (setting [4]) it was 3.6 nM.
In the same order, the values of `CCN(CC)C(=O)COc1nc(N)nc(-c2ccc(C)o2)c1-c1cc(C)nc(C(F)(F)F)c1` [Example 12, 2-((2-amino-5-(2-methyl-6-(trifluoromethyl)pyridin-4-yl)-6-(5-methylfuran-2-yl)pyrimidin-4-yl)oxy)-N,N-diethylacetamide] are 2 nM and 13.8 nM.
Consider `COC(=O)NCC1(COc2nc(N)nc(-c3ccc(F)cc3)c2-c2cc(C)nc(C(F)F)c2)CCOCC1` [Example 158, methyl ((4-(((2-amino-5-(2-(difluoromethyl)-6-methylpyridin-4-yl)-6-(4-fluorophenyl)pyrimidin-4-yl)oxy)methyl)tetrahydro-2H-pyran-4-yl)methyl)carbamate], for which the IC50 at Adenosine A2A receptor [1] (setting [5]) worked out at 231 nM; at Adenosine A2A receptor [2] (setting [4]), 627 nM.
As for `Cc1cc(-c2c(OCc3nccn3CC(C)C(=O)O)nc(N)nc2-c2ccc(F)cc2)cc(C(F)F)n1` (stereo not drawn) [Example 207, 3-(2-(((2-amino-5-(2-(difluoromethyl)-6-methylpyridin-4-yl)-6-(4-fluorophenyl)pyrimidin-4-yl)oxy)methyl)-1H-imidazol-1-yl)-2-methylpropanoic acid], the IC50 on Adenosine A2A receptor [1] (8 nM CGS, read-out: cAMP (nM) 0.1% BSA, 8 nM CGS) came out at 29 nM; on Adenosine A2A receptor [2] (HTRF), 28 nM.
In turn, `Cc1cc(-c2c(Oc3ccccc3)nc(N)nc2-c2ccc(F)cc2)cc(C(F)F)n1` [Example 47, 5-(2-(difluoromethyl)-6-methylpyridin-4-yl)-4-(4-fluorophenyl)-6-phenoxypyrimidin-2-amine] gave an IC50 on Adenosine A2A receptor [2] (setting [4]) of 21.3 nM.
Molecule `Cc1cc(-c2c(OCC(=O)NC3CC3)nc(N)nc2-c2ccc(F)cc2)cc(C(F)F)n1` [Example 42, 2-((2-amino-5-(2-(difluoromethyl)-6-methylpyridin-4-yl)-6-(4-fluorophenyl)pyrimidin-4-yl)oxy)-N-cyclopropylacetamide] showed an IC50 at Adenosine A2A receptor [2] (setting [4]) of 5.2 nM.
Turning to `Cc1cc(-c2c(OCC(O)C(C)(C)O)nc(N)nc2-c2ccc(F)cc2)cc(C(F)F)n1` (stereo not drawn) [Example 91, 1-((2-amino-5-(2-(difluoromethyl)-6-methylpyridin-4-yl)-6-(4-fluorophenyl)pyrimidin-4-yl)oxy)-3-methylbutane-2,3-diol], at Adenosine A2A receptor [2] (setting [4]), the IC50 is greater than 1000 nM.
In the case of `Cc1cc(-c2c(C(=O)NCc3cccc(C(C)(C)O)n3)nc(N)nc2-c2ccc(F)cc2)cc(C(F)F)n1` [Example 110, 2-amino-5-(2-(difluoromethyl)-6-methylpyridin-4-yl)-6-(4-fluorophenyl)-N-((6-(2-hydroxypropan-2-yl)pyridin-2-yl)methyl)pyrimidine-4-carboxamide], the IC50 at Adenosine A2A receptor [2] (setting [4]) worked out at 250 nM.
In turn, `Cc1cc(-c2c(C(=O)NCc3cccc(C(C)C)n3)nc(N)nc2-c2ccc(F)cc2)cc(C(F)F)n1` [Example 108, 2-amino-5-(2-(difluoromethyl)-6-methylpyridin-4-yl)-6-(4-fluorophenyl)-N-((6-isopropylpyridin-2-yl)methyl)pyrimidine-4-carboxamide] came in with an IC50 at Adenosine A2A receptor [2] (setting [4]) of 222 nM.
As for `CCc1nnn(C)c1COc1nc(N)nc(-c2ccc(F)cc2)c1-c1cc(C)nc(C(F)F)c1` [Example 200, 5-(2-(difluoromethyl)-6-methylpyridin-4-yl)-4-((4-ethyl-1-methyl-1H-1,2,3-triazol-5-yl)methoxy)-6-(4-fluorophenyl)pyrimidin-2-amine], the IC50 on Adenosine A2A receptor [2] (HTRF) is 13 nM.
`Cc1cc(-c2c(OCCN3CCOCC3)nc(N)nc2-c2ccc(F)cc2)cc(C(F)F)n1` [Example 36, 5-(2-(difluoromethyl)-6-methylpyridin-4-yl)-4-(4-fluorophenyl)-6-(2-morpholinoethoxy)pyrimidin-2-amine]: at Adenosine A2A receptor [2] (setting [4]), the IC50 worked out at 11.4 nM.
Still for that read-out and setting: to `Cc1cc(-c2c(CNCC(F)(F)F)nc(N)nc2-c2ccccc2)cc(C(F)(F)F)n1` [Example 24, 5-(2-methyl-6-(trifluoromethyl)pyridin-4-yl)-4-phenyl-6-(((2,2,2-trifluoroethyl)amino)methyl)pyrimidin-2-amine] belongs 118 nM.
On to `CCN(CC)C(=O)OCc1nc(N)nc(-c2ccccc2)c1-c1cc(C)nc(C(F)(F)F)c1` [Example 21, (2-amino-5-(2-methyl-6-(trifluoromethyl)pyridin-4-yl)-6-phenylpyrimidin-4-yl)methyl diethylcarbamate], for which, at Adenosine A2A receptor [2] (setting [4]), the IC50 stood at 111 nM.
`CC(=O)N1CCC(Oc2ccc(CCOc3nc(N)nc(-c4ccccc4)c3-c3cc(C)nc(C(F)(F)F)c3)cc2)C1` (stereo not drawn) [Example 25, 1-(3-(4-(2-((2-amino-5-(2-methyl-6-(trifluoromethyl)pyridin-4-yl)-6-phenylpyrimidin-4-yl)oxy)ethyl)phenoxy)pyrrolidin-1-yl)ethan-1-one] registered an IC50 on Adenosine A2A receptor [2] (setting [4]) of 32 nM.
Take `Cc1cc(-c2c(OCCc3ccc(N4CCC(=O)CC4)cc3)nc(N)nc2-c2ccccc2)cc(C(F)(F)F)n1` [Example 26, 1-(4-(2-((2-amino-5-(2-methyl-6-(trifluoromethyl)pyridin-4-yl)-6-phenylpyrimidin-4-yl)oxy)ethyl)phenyl)piperidin-4-one]: on Adenosine A2A receptor [2] (setting [4]), the IC50 is 43 nM and 26.8 nM.
Same read-out and setting: the figure for `COC(=O)Nc1ccc(CCOc2nc(N)nc(-c3ccc(F)cc3)c2-c2cc(C)nc(C(F)F)c2)cc1` [Example 72, Methyl(4-(2-((2-amino-5-(2-(difluoromethyl)-6-methylpyridin-4-yl)-6-(4-fluorophenyl)pyrimidin-4-yl)oxy)ethyl)phenyl)carbamate] is 41 nM; for `Cc1cc(-c2c(OCCN3CCN(S(C)(=O)=O)CC3)nc(N)nc2-c2ccc(F)cc2)cc(C(F)F)n1` [Example 49, 5-(2-(difluoromethyl)-6-methylpyridin-4-yl)-4-(4-fluorophenyl)-6-(2-(4-(methylsulfonyl)piperazin-1-yl)ethoxy)pyrimidin-2-amine] it is 13.9 nM.
On the same count and under the same terms, to `Cc1cc(-c2c(OCC(=O)NCCCS(C)(=O)=O)nc(N)nc2-c2ccc(F)cc2)cc(C(F)F)n1` [Example 50, 2-((2-amino-5-(2-(difluoromethyl)-6-methylpyridin-4-yl)-6-(4-fluorophenyl)pyrimidin-4-yl)oxy)-N-(3-(methylsulfonyl)propyl)acetamide] belongs 535 nM.
